Active and inactive are the calls of the source.
Experiments:
Assay type in all cases: functional
Hexokinase HKDC1 = target: T1, Hexokinase HKDC1 (Homo sapiens, UniProt Q2TB90); experiment: inhibition of HKDC1 glucose phosphorylation – biochemical, W721R variant, dose response (AID 504729)
T1 sequence (Q2TB90 whole entry): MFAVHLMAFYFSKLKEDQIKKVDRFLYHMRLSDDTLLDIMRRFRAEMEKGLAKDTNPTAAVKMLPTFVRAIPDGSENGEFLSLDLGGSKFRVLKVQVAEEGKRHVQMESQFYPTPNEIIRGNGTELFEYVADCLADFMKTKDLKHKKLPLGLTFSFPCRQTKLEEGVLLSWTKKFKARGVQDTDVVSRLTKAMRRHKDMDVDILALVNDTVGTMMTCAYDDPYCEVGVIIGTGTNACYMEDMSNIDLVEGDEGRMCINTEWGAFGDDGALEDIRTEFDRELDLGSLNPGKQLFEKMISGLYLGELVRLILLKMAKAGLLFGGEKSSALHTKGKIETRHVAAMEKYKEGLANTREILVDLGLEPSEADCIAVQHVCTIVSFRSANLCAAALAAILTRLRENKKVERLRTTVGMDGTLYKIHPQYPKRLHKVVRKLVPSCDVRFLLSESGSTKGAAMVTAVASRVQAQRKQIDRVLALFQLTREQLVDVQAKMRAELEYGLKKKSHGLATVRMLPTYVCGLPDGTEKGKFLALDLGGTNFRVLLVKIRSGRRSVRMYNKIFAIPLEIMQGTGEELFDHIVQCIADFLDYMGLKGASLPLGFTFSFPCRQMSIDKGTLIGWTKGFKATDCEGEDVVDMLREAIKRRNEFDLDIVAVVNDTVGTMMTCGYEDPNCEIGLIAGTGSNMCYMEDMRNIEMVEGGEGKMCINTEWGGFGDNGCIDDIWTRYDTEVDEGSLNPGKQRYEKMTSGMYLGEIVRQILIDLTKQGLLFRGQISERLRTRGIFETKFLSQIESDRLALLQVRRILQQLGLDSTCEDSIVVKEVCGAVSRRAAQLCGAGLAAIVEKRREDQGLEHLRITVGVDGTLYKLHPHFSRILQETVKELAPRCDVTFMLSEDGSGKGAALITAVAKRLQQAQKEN

Protein RecA = target: T2, Protein RecA (Mycobacterium tuberculosis, UniProt P9WHJ3); experiment: Fluorescence Cell-Free Homogeneous Dose Retest to Identify Inhibitors of RecA-Intein Splicing Activity. [Related pubchem assays (depositor defined):AID2097, AID2223, AID489010, AID492950]
T2 sequence (P9WHJ3 whole entry): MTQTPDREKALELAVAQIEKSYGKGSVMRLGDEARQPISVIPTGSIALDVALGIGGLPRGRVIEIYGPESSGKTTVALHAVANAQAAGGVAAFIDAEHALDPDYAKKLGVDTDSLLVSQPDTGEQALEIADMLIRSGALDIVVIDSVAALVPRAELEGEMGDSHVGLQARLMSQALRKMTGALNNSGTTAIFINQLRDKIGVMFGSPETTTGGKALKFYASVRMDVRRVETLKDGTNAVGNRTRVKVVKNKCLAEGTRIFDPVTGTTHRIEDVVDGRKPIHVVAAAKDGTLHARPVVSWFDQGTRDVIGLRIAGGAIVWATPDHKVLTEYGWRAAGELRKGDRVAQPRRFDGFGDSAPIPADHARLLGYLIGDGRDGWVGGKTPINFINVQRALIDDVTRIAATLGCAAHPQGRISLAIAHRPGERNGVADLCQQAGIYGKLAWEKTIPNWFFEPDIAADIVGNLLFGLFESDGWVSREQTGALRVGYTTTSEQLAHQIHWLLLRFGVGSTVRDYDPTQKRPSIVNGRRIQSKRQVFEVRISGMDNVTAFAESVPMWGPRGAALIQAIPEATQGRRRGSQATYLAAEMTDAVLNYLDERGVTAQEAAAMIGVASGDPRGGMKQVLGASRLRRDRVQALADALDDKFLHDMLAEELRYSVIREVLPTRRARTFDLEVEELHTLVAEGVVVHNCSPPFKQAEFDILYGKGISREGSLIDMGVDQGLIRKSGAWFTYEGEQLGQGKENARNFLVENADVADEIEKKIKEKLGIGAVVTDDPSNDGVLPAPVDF

[1] = target: T3, Replicative DNA helicase DnaB (Mycobacterium tuberculosis, UniProt P9WMR3); experiment: DnaB intein splicing inhibitors, dose response, biochemical, cell-free fluorescence (AID 449749)
T3 sequence (P9WMR3 whole entry): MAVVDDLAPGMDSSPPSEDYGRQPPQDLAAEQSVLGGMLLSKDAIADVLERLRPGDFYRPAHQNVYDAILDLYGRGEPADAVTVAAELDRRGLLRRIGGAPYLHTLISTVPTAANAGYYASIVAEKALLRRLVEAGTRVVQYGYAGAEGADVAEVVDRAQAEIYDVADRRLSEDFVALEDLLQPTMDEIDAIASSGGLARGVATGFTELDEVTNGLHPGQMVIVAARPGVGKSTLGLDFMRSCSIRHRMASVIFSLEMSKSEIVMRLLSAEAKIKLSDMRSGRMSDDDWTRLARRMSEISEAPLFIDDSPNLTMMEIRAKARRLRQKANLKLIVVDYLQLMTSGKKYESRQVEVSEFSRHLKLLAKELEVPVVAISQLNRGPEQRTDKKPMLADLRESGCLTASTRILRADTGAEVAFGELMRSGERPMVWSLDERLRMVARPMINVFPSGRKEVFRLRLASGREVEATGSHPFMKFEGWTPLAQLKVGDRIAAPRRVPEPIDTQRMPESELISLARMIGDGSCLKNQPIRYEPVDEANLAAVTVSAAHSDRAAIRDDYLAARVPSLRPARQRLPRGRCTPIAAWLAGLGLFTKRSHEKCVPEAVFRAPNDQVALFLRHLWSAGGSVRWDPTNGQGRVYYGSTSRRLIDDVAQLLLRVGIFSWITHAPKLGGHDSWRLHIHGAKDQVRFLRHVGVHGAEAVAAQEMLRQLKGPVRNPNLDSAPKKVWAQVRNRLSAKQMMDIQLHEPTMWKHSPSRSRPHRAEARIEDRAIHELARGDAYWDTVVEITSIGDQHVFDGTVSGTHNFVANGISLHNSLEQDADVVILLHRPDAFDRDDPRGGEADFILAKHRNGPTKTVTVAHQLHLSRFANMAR

Q: Which IC50 (Hexokinase HKDC1) does the source give for NC(=O)C1CCN(C2=C(Cl)C(=O)c3ccccc3C2=O)CC1 here?
A: 25.9 µM (inactive)

Q: What about the EC50 (Protein RecA) of the same compound?
A: 0.146 µM (active)

Q: What about the AC50 [1] of the same compound?
A: 0.617 µM (active)

Q: With O=c1c2ccccc2nc(/C=C/c2cccnc2)n1Cc1ccccc1 as the compound, how does the IC50 (Hexokinase HKDC1) read?
A: 3.2 µM (active)

Q: And the EC50 (Protein RecA)?
A: 9.92 µM (active)

Q: What about the AC50 [1] of the same compound?
A: 9.28 µM (active)

Q: For COC(=O)c1ccccc1NC1=C/C(=N\S(=O)(=O)c2ccc(C(=O)O)cc2)c2ccccc2C1=O, which IC50 (Hexokinase HKDC1) is on record?
A: 3.84 µM (active)

Q: What about the AC50 [1] of the same compound?
A: > 380 µM (inconclusive)

Source: ChEMBL document CHEMBL1201862, “PubChem BioAssay data set” (2004)
